Source: PubChem BioAssay (NCI)
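Dose response: 5 concentrations. Exposure: 48 h. Format: 96-well plates. Endpoint: linear interpolation; highest concentration if not reached. GI50 marks 50% less growth. TGI: total growth inhibition.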

Key:
Assay in all cases: NCI anticancer screen, dose series, 48 h
MCF7 breast = tested on: MCF7 breast
DU-145 prostate = tested on: DU-145 prostate
NCI/ADR-RES ovarian = tested on: NCI/ADR-RES ovarian
MOLT-4 leukemia = tested on: MOLT-4 leukemia
UACC-257 melanoma = tested on: UACC-257 melanoma
RPMI-8226 leukemia = tested on: RPMI-8226 leukemia
SK-MEL-28 melanoma = tested on: SK-MEL-28 melanoma
SK-OV-3 ovarian = tested on: SK-OV-3 ovarian
NCI-H460 lung = tested on: NCI-H460 lung
HCT-15 colon = tested on: HCT-15 colon
MDA-MB-435 = tested on: MDA-MB-435
NCI-H23 lung = tested on: NCI-H23 lung
UO-31 renal = tested on: UO-31 renal
MALME-3M melanoma = tested on: MALME-3M melanoma
TK-10 renal = tested on: TK-10 renal
SK-MEL-5 melanoma = tested on: SK-MEL-5 melanoma
786-0 renal = tested on: 786-0 renal
IGROV1 ovarian = tested on: IGROV1 ovarian
SF-268 CNS = tested on: SF-268 CNS
BT-549 breast = tested on: BT-549 breast
ACHN renal = tested on: ACHN renal
CCRF-CEM leukemia = tested on: CCRF-CEM leukemia
SNB-75 CNS = tested on: SNB-75 CNS
HOP-62 NSCLC = tested on: HOP-62 NSCLC
HOP-92 NSCLC = tested on: HOP-92 NSCLC
NCI-H226 lung = tested on: NCI-H226 lung
UACC-62 melanoma = tested on: UACC-62 melanoma
SW-620 colon = tested on: SW-620 colon
HS 578T breast = tested on: HS 578T breast
NCI-H522 lung = tested on: NCI-H522 lung
SK-MEL-2 melanoma = tested on: SK-MEL-2 melanoma
SR leukemia = tested on: SR leukemia
HL-60(TB) leukemia = tested on: HL-60(TB) leukemia
COLO 205 colon = tested on: COLO 205 colon
A549 NSCLC = tested on: A549 NSCLC
M14 melanoma = tested on: M14 melanoma
SNB-19 CNS = tested on: SNB-19 CNS
U251 CNS = tested on: U251 CNS
OVCAR-8 ovarian = tested on: OVCAR-8 ovarian
SN12C renal = tested on: SN12C renal
SF-295 CNS = tested on: SF-295 CNS
HT29 colon = tested on: HT29 colon
OVCAR-5 ovarian = tested on: OVCAR-5 ovarian
K-562 leukemia = tested on: K-562 leukemia
HCC-2998 colon = tested on: HCC-2998 colon
OVCAR-4 ovarian = tested on: OVCAR-4 ovarian
PC-3 prostate = tested on: PC-3 prostate
LOX IMVI melanoma = tested on: LOX IMVI melanoma
SF-539 CNS = tested on: SF-539 CNS
KM12 colon = tested on: KM12 colon
A498 renal = tested on: A498 renal
T-47D breast = tested on: T-47D breast
MDA-MB-231 breast = tested on: MDA-MB-231 breast
HCT-116 colon = tested on: HCT-116 colon
OVCAR-3 ovarian = tested on: OVCAR-3 ovarian
CAKI-1 renal = tested on: CAKI-1 renal

What does the source list for `CN(C)CCCNCc1ccc(-c2ccc(F)c(Cl)c2)o1`?
GI50 (MCF7 breast): 10.1 µM; TGI (MCF7 breast): 23.4 µM; GI50 (DU-145 prostate): 16.6 µM; TGI (DU-145 prostate): 30.6 µM; GI50 (NCI/ADR-RES ovarian): 15.7 µM; TGI (NCI/ADR-RES ovarian): 33.4 µM; GI50 (MOLT-4 leukemia): 11.5 µM; TGI (MOLT-4 leukemia): 28 µM; GI50 (UACC-257 melanoma): 3.81 µM; TGI (UACC-257 melanoma): 13.8 µM; GI50 (RPMI-8226 leukemia): 10.7 µM; TGI (RPMI-8226 leukemia): 29.9 µM; GI50 (SK-MEL-28 melanoma): 10.2 µM; TGI (SK-MEL-28 melanoma): 22.1 µM; GI50 (SK-OV-3 ovarian): 16.9 µM; TGI (SK-OV-3 ovarian): 31.1 µM; GI50 (NCI-H460 lung): 14.3 µM; TGI (NCI-H460 lung): 29.8 µM; GI50 (HCT-15 colon): 12.2 µM; TGI (HCT-15 colon): 32.4 µM; GI50 (MDA-MB-435): 5.58 µM; TGI (MDA-MB-435): 20.5 µM; GI50 (NCI-H23 lung): 14.7 µM; TGI (NCI-H23 lung): 31.5 µM; GI50 (UO-31 renal): 12.3 µM; TGI (UO-31 renal): 26.9 µM; GI50 (MALME-3M melanoma): 16 µM; TGI (MALME-3M melanoma): 33.5 µM; GI50 (TK-10 renal): 16.3 µM; TGI (TK-10 renal): 31.5 µM; GI50 (SK-MEL-5 melanoma): 3.69 µM; TGI (SK-MEL-5 melanoma): 13.9 µM; GI50 (786-0 renal): 10.8 µM; TGI (786-0 renal): 23.7 µM; GI50 (IGROV1 ovarian): 13.5 µM; TGI (IGROV1 ovarian): 32.2 µM; GI50 (SF-268 CNS): 12.1 µM; TGI (SF-268 CNS): 24.8 µM; GI50 (BT-549 breast): 11.8 µM; TGI (BT-549 breast): 26 µM; GI50 (ACHN renal): 15.9 µM; TGI (ACHN renal): 32.7 µM; GI50 (CCRF-CEM leukemia): 9.71 µM; TGI (CCRF-CEM leukemia): 26.3 µM; GI50 (SNB-75 CNS): 1230 nM; TGI (SNB-75 CNS): 18.1 µM; GI50 (HOP-62 NSCLC): 14.5 µM; TGI (HOP-62 NSCLC): 28.2 µM; GI50 (HOP-92 NSCLC): 3.06 µM; TGI (HOP-92 NSCLC): 20 µM; GI50 (NCI-H226 lung): 16.8 µM; TGI (NCI-H226 lung): 35 µM; GI50 (UACC-62 melanoma): 1880 nM; TGI (UACC-62 melanoma): 3.79 µM; GI50 (SW-620 colon): 14 µM; TGI (SW-620 colon): 30.3 µM; GI50 (HS 578T breast): 10.3 µM; TGI (HS 578T breast): 26.8 µM; GI50 (NCI-H522 lung): 13.6 µM; TGI (NCI-H522 lung): 30 µM; GI50 (SK-MEL-2 melanoma): 15.9 µM; TGI (SK-MEL-2 melanoma): 31.2 µM; GI50 (SR leukemia): 2960 nM; TGI (SR leukemia): 8.37 µM; GI50 (HL-60(TB) leukemia): 14.1 µM; TGI (HL-60(TB) leukemia): 30.7 µM; GI50 (COLO 205 colon): 4.52 µM; TGI (COLO 205 colon): 15.5 µM; GI50 (A549 NSCLC): 16.1 µM; TGI (A549 NSCLC): 31.8 µM; GI50 (M14 melanoma): 7.2 µM; TGI (M14 melanoma): 22 µM; GI50 (SNB-19 CNS): 15.3 µM; TGI (SNB-19 CNS): 32.8 µM; GI50 (U251 CNS): 14.4 µM; TGI (U251 CNS): 30.7 µM; GI50 (OVCAR-8 ovarian): 16.2 µM; TGI (OVCAR-8 ovarian): 36.5 µM; GI50 (SN12C renal): 12.1 µM; TGI (SN12C renal): 26.6 µM; GI50 (SF-295 CNS): 14.3 µM; TGI (SF-295 CNS): 31.2 µM; GI50 (HT29 colon): 6.18 µM; TGI (HT29 colon): 20.4 µM; GI50 (OVCAR-5 ovarian): 15.5 µM; TGI (OVCAR-5 ovarian): 33.6 µM; GI50 (K-562 leukemia): 3.06 µM; TGI (K-562 leukemia): 10.2 µM; GI50 (HCC-2998 colon): 13 µM; TGI (HCC-2998 colon): 25.9 µM; GI50 (OVCAR-4 ovarian): 13 µM; TGI (OVCAR-4 ovarian): 35.8 µM; GI50 (PC-3 prostate): 12.2 µM; TGI (PC-3 prostate): 26.5 µM; GI50 (LOX IMVI melanoma): 5.23 µM; TGI (LOX IMVI melanoma): 18.2 µM; GI50 (SF-539 CNS): 12.9 µM; TGI (SF-539 CNS): 27.9 µM; GI50 (KM12 colon): 14.5 µM; TGI (KM12 colon): 29.2 µM; GI50 (A498 renal): 3.22 µM; TGI (A498 renal): 18.7 µM; GI50 (T-47D breast): 11.8 µM; TGI (T-47D breast): 28.3 µM; GI50 (MDA-MB-231 breast): 9.89 µM; TGI (MDA-MB-231 breast): 22.3 µM; GI50 (HCT-116 colon): 8.33 µM; TGI (HCT-116 colon): 25 µM; GI50 (OVCAR-3 ovarian): 15.4 µM; TGI (OVCAR-3 ovarian): 29.8 µM; GI50 (CAKI-1 renal): 12.6 µM; TGI (CAKI-1 renal): 27.3 µM
